These are literature values, as cited in patent publication US6849589B2, “Cleaning composition” (3M Innovative Properties Company, priority 2001, dated 2005).

The conditions of this series: in water, at about 20° C.

`CC(C)CC(=O)CC(C)C` [di-isobutyl ketone]: the water solubility result was “about 0.05 weight percent”. Consider `CCCCCCCCN1CCCC1=O` [N-octyl pyrrolidone], for which the water solubility result is given as “about 0.124 weight percent”. Consider `CCCCCCCCO` [Example 1-octanol, 1-octanol], for which the water solubility entry is on record as “about 0.1 weight percent”. Take `CC(C)CCCCCO` [isooctyl alcohol]: the water solubility result was “about 0.06 weight percent”.
